We go through twelve compounds from ChEMBL document CHEMBL1201862, “PubChem BioAssay data set” (2004).

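Protocol summary: plate cells (96-well), add compound at 5 concentrations, incubate 48 h, interpolate endpoints linearly. The concentration for 50% growth inhibition is given as GI50.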 Activity calls are given as the source filed them. No stated cut-off is given here; in the data, active = GI50 up to about 1.1 µM and inactive = higher.

Among the test systems are NCI-H23; HT-29; UO-31; Malme-3M; UACC-257; A549; HCC 2998; SF-295; RPMI-8226; MDA-MB-435; NCI/ADR-RES; MDA-MB-231; HCT-15; LOX IMVI; OVCAR-5; IGROV-1; SK-MEL-2; NCI-H460; A498; M19-MEL.
Holding throughout (experiment): growth of human tumour cells (NCI), 48 h

In the case of `ON(CCc1ccccn1)Cc1ccccc1`, the GI50 in the assay on NCI-H23, with HT-29, in the assay with UO-31, with Malme-3M, in the assay on UACC-257 and with A549 was > 100 µM (inactive) throughout. Moreover, the GI50 in the assay on HCC 2998, in the assay with SF-295, in the assay on RPMI-8226, in the assay with MDA-MB-435, in the assay on NCI/ADR-RES and in the assay with MDA-MB-231 was > 100 µM (inactive) each time. The GI50 in the assay with HCT-15 was over 100 µM; with LOX IMVI it was > 100 µM (inactive); in the assay on OVCAR-5, > 100 µM (inactive); in the assay with IGROV-1, > 100 µM (inactive); with SK-MEL-2, > 100 µM (inactive); with NCI-H460, > 100 µM (inactive). Further, the GI50 in the assay on A498 is > 100 µM (inactive).
For `CCC(CC)NC1=C(NC(C)=O)C(=O)c2ccccc2C1=O`, the GI50 in the assay on NCI-H23 was > 50 µM (inactive); in the assay with HT-29 it was > 50 µM (inactive); in the assay with UO-31, > 50 µM (inactive); in the assay with Malme-3M, 45.4 µM (inactive); with UACC-257, > 50 µM (inactive); with A549, > 50 µM (inactive). In addition, the GI50 in the assay with HCC 2998 is > 50 µM (inactive); with SF-295 it was > 50 µM (inactive); in the assay with HCT-15, over 50 µM; in the assay with LOX IMVI it was > 50 µM (inactive); in the assay with IGROV-1, > 50 µM (inactive); with SK-MEL-2 it was > 50 µM (inactive). The GI50 in the assay on NCI-H460 and in the assay on M19-MEL was > 50 µM (inactive) in each case.
For the compound `CCOC(=O)/C(=C/c1ccc(N(C)C)cc1)N(CC)CC`, the GI50 was 49.4 µM (inactive) with NCI-H23; 68.5 µM (inactive) with UO-31; > 100 µM (inactive) in the assay on Malme-3M; 35.8 µM (inactive) in the assay on UACC-257; 48.1 µM (inactive) in the assay on A549; > 100 µM (inactive) in the assay on HCC 2998. Moreover, the GI50 was > 100 µM (inactive) with SF-295; 26.1 µM (inactive) in the assay on RPMI-8226; 40.3 µM in the assay with HCT-15; 27.7 µM (inactive) in the assay with LOX IMVI; > 100 µM (inactive) with OVCAR-5; > 100 µM (inactive) with IGROV-1. For the same compound, the GI50 with SK-MEL-2 is 58.2 µM (inactive); in the assay with M19-MEL it was 24.6 µM (inactive).
As to `COC(=O)c1ccc(/C=C/S(=O)(=O)c2ccccc2)cc1`, the GI50 in the assay with NCI-H23, in the assay with HT-29, in the assay with UO-31, with Malme-3M, in the assay with UACC-257 and with A549 was > 100 µM (inactive) in each case. The GI50 in the assay on SF-295 is > 100 µM (inactive); in the assay with RPMI-8226, > 100 µM (inactive); with HCT-15, over 100 µM; in the assay with LOX IMVI it was > 100 µM (inactive); with OVCAR-5, > 100 µM (inactive); with IGROV-1, > 100 µM (inactive). Also, the GI50 in the assay with SK-MEL-2, with NCI-H460, in the assay with A498 and in the assay with M19-MEL was > 100 µM (inactive) each time.
As for `C=C(C)OCOCCOC`, the GI50 in the assay with NCI-H23, in the assay with HT-29, in the assay with UO-31, in the assay with Malme-3M, with UACC-257 and in the assay on A549 was > 100 µM (inactive) in each case. The GI50 in the assay with HCC 2998, in the assay with SF-295, with RPMI-8226, in the assay with MDA-MB-435, in the assay with NCI/ADR-RES and in the assay with MDA-MB-231 was > 100 µM (inactive) each time. The GI50 is over 100 µM with HCT-15; > 100 µM (inactive) with LOX IMVI; > 100 µM (inactive) with OVCAR-5; > 100 µM (inactive) with IGROV-1; > 100 µM (inactive) in the assay on SK-MEL-2; > 100 µM (inactive) in the assay with NCI-H460. In the assay with A498, the GI50 is > 100 µM (inactive).
As for `C=C(Br)CN(CC(=C)Br)C(C)=O`, the GI50 in the assay with NCI-H23, in the assay on HT-29, with UO-31, in the assay with Malme-3M, in the assay on UACC-257 and in the assay on A549 was > 100 µM (inactive) each time. For the same compound, the GI50 with HCC 2998, in the assay with SF-295, in the assay with RPMI-8226, in the assay on MDA-MB-435, in the assay with NCI/ADR-RES and in the assay with MDA-MB-231 was > 100 µM (inactive) each time. For the same compound, the GI50 in the assay on HCT-15 is over 100 µM; with LOX IMVI it was > 100 µM (inactive); in the assay on OVCAR-5 it was > 100 µM (inactive); in the assay with IGROV-1, > 100 µM (inactive); with SK-MEL-2 it was > 100 µM (inactive); in the assay on NCI-H460, > 100 µM (inactive). Also, in the assay with A498, the GI50 was > 100 µM (inactive).
In the case of `CC(=O)O[C@]12CCCCC1C1(O)C(O)CCCC[C@H]12` (some centres undefined), the GI50 with NCI-H23, with HT-29, in the assay with UO-31, in the assay on Malme-3M, in the assay on UACC-257 and in the assay on A549 was > 100 µM (inactive) in each case. Moreover, the GI50 in the assay with SF-295 was > 100 µM (inactive); in the assay with RPMI-8226, > 100 µM (inactive); in the assay with HCT-15, over 100 µM; in the assay with LOX IMVI it was > 100 µM (inactive); in the assay with SK-MEL-2, > 100 µM (inactive); with NCI-H460 it was > 100 µM (inactive). Further, in the assay with M19-MEL, the GI50 was > 100 µM (inactive).
As for `CC(=O)OC12C=CC(=O)N1c1ccccc1C(=O)O2` (centres undefined), the GI50 with NCI-H23 is > 100 µM (inactive); with HT-29, > 100 µM (inactive); in the assay on UO-31, > 100 µM (inactive); in the assay with Malme-3M, 0.962 µM (active); in the assay with UACC-257 it was > 100 µM (inactive); with A549, > 100 µM (inactive). For the same compound, the GI50 in the assay with HCC 2998 was > 100 µM (inactive); with SF-295 it was > 100 µM (inactive); in the assay on RPMI-8226 it was > 100 µM (inactive); in the assay with HCT-15, over 100 µM; in the assay on LOX IMVI, > 100 µM (inactive); with OVCAR-5, > 100 µM (inactive). For the same compound, the GI50 in the assay with IGROV-1, in the assay with SK-MEL-2, in the assay on NCI-H460 and in the assay with M19-MEL was > 100 µM (inactive) in each case.
In the case of `c1ccc2[nH]c3[nH]c4[nH]c5ccccc5[nH]c4[nH]c3[nH]c2c1`, the GI50 in the assay on NCI-H23, in the assay on HT-29, with UO-31, with Malme-3M, in the assay on UACC-257 and in the assay with A549 was > 100 µM (inactive) each time. Besides, the GI50 is > 100 µM (inactive) with HCC 2998; 66.2 µM (inactive) in the assay on SF-295; > 100 µM (inactive) in the assay on RPMI-8226; > 100 µM (inactive) in the assay on MDA-MB-435; > 100 µM (inactive) in the assay with NCI/ADR-RES; > 100 µM (inactive) with MDA-MB-231. The GI50 with HCT-15 was over 100 µM; in the assay on LOX IMVI it was > 100 µM (inactive); with OVCAR-5 it was 44.5 µM (inactive); in the assay on IGROV-1 it was > 100 µM (inactive); with SK-MEL-2 it was > 100 µM (inactive); in the assay with NCI-H460, > 100 µM (inactive). For the same compound, the GI50 with A498 is > 100 µM (inactive).
Consider `CC(C)/C(=N\[N+](C)(C)C)c1ccccc1`, for which the GI50 with NCI-H23, in the assay with HT-29, in the assay on UO-31, in the assay with Malme-3M, in the assay with UACC-257 and in the assay with A549 was > 100 µM (inactive) each time. Besides, the GI50 with HCC 2998, in the assay with SF-295, in the assay with RPMI-8226, with MDA-MB-435, in the assay on NCI/ADR-RES and in the assay on MDA-MB-231 was > 100 µM (inactive) in each case. The GI50 in the assay with HCT-15 is over 100 µM; in the assay with LOX IMVI, > 100 µM (inactive); in the assay on OVCAR-5, > 100 µM (inactive); in the assay with IGROV-1, > 100 µM (inactive); with SK-MEL-2 it was > 100 µM (inactive); in the assay with NCI-H460, > 100 µM (inactive). Moreover, the GI50 in the assay on A498 was > 100 µM (inactive).
With `CN(C)CCCN1C(=O)N(CCCN(C)C)c2c3cc(O)ccc3nc3c([N+](=O)[O-])ccc1c23`, the GI50 in the assay with NCI-H23 is 13 µM (inactive); with HT-29 it was 11.8 µM (inactive); in the assay with UO-31, 20.5 µM (inactive); with Malme-3M, 17.8 µM (inactive); in the assay with UACC-257, 30.8 µM (inactive); in the assay on A549 it was 13.6 µM (inactive). Also, the GI50 in the assay on HCC 2998 was 11.7 µM (inactive); in the assay on SF-295, 34.4 µM (inactive); with RPMI-8226, 32.6 µM (inactive); with MDA-MB-435, 18 µM (inactive); with NCI/ADR-RES it was 92.9 µM (inactive); with MDA-MB-231, 11.6 µM (inactive). In addition, the GI50 is 13.1 µM in the assay with HCT-15; 10.4 µM (inactive) with LOX IMVI; 53.1 µM (inactive) with OVCAR-5; 4.57 µM (inactive) with IGROV-1; 15.6 µM (inactive) with SK-MEL-2; 15.6 µM (inactive) in the assay with NCI-H460. For the same compound, in the assay with A498, the GI50 was 22 µM (inactive).
Regarding `Cc1cc(NS(=O)(=O)c2ccc(Nc3c4ccccc4nc4c(C(=O)NCCN(C)C)cccc34)cc2)no1`, the GI50 with NCI-H23 is 4.46 µM (inactive); in the assay with HT-29, 6.03 µM (inactive); in the assay with A549, 3.29 µM (inactive); with HCC 2998, 3.87 µM (inactive); in the assay with SF-295 it was 8.38 µM (inactive); in the assay on HCT-15 it was 18.5 µM. Also, the GI50 was 1.35 µM (inactive) in the assay with LOX IMVI; 17.9 µM (inactive) with OVCAR-5; 2.37 µM (inactive) with IGROV-1; 6.43 µM (inactive) in the assay on SK-MEL-2; 0.685 µM (active) in the assay with NCI-H460; 12.5 µM (inactive) in the assay with M19-MEL.
